According to the supplement of paper PMC11061612:

Assays:
Assay in all cases: combination Emax (second highest fraction inhibited in the dose matrix, 72 h); higher = more inhibition; extreme values may be limits of the assay
[1] = tested on: LN-405 (Glioblastoma)
Procedure, shortened: (§1)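 Cell lines in DMEM/F12 or RPMI with 10% FBS were plated in 1536-well plates, held 24 hours at 37°C, 5% CO2, then given two-drug dose matrices for 72 hours (DMSO typically 0.2%). Viability was read by CellTiter-Glo 2.0 luminescence and scaled as inhibition from 0 (vehicle wells) to 1 (blank wells). Combination Emax is the second-highest inhibition in the matrix; Bliss excess is observed combination effect minus expected EA + EB − EA·EB, EA and EB being single-agent effects.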

[2] = tested on: NCI-H2141 (Small Cell Lung Carcinoma)
Procedure, shortened: as §1

[3] = tested on: ARH-77 (Non-Cancerous)
Procedure, shortened: as §1

[4] = tested on: SK-MG-1 (Low Grade Glioma)
Procedure, shortened: as §1

[5] = tested on: SK-MES-1 (Squamous Cell Lung Carcinoma)
Procedure, shortened: as §1

[6] = tested on: PANC-10-05 (Pancreatic Carcinoma)
Procedure, shortened: as §1

[7] = tested on: OS-RC-2 (Kidney Carcinoma)
Procedure, shortened: as §1

[8] = tested on: A498 (Kidney Carcinoma)
Procedure, shortened: as §1

[9] = tested on: NCI-H1666 (Lung Adenocarcinoma)
Procedure, shortened: as §1

[10] = tested on: IGR-37 (Melanoma)
Procedure, shortened: as §1

[11] = tested on: COR-L311 (Small Cell Lung Carcinoma)
Procedure, shortened: as §1

[12] = tested on: U-2-OS (Osteosarcoma)
Procedure, shortened: as §1

[13] = tested on: CAS-1 (Glioblastoma)
Procedure, shortened: as §1

[14] = tested on: BICR22 (Oral Cavity Carcinoma)
Procedure, shortened: as §1

[15] = tested on: NY (Osteosarcoma)
Procedure, shortened: as §1

[16] = tested on: COLO-320-HSR (Colorectal Carcinoma)
Procedure, shortened: as §1

[17] = tested on: NCI-H1693 (Lung Adenocarcinoma)
Procedure, shortened: as §1

[18] = tested on: ECC10 (Gastric Carcinoma)
Procedure, shortened: as §1

[19] = tested on: Hs-445 (Non-Cancerous)
Procedure, shortened: as §1

[20] = tested on: SISO (Cervical Carcinoma)
Procedure, shortened: as §1

Row | Structure (SMILES) | combination Emax [1] | combination Emax [2] | combination Emax [3] | combination Emax [4] | combination Emax [5] | combination Emax [6] | combination Emax [7] | combination Emax [8] | combination Emax [9] | combination Emax [10] | combination Emax [11] | combination Emax [12] | combination Emax [13] | combination Emax [14] | combination Emax [15] | combination Emax [16] | combination Emax [17] | combination Emax [18] | combination Emax [19] | combination Emax [20]
1 | Cc1c2c(nn1C)CSCc1cc(n(C)n1)CSc1cc(c3ccccc3c1)OCCCc1c(C(=O)O)n(C)c3c-2c(Cl)ccc13 [AZD5991] + Cc1cc2ncnn2cc1Nc1ncc2c(n1)n(C1CCOCC1)c(=O)n2C [AZD7648] (first compound max 1 µM, 7x7, partner max 10 µM) | 0.37 | 0.307 | 0.835 | 0.374 | 0.223 | 0.404 | 0.286 | 0.423 | 0.246 | 0.25 | 0.343 | 0.261 | 0.401 | 0.499 | 0.579 | 0.808 | 0.256 | 0.669 | 0.942 | 0.191
2 | C[C@@H]1COCCN1c1cc(C2([S@](C)(=N)=O)CC2)nc(-c2ccnc3[nH]ccc23)n1 [AZD6738] + O=C(c1cc(Cc2n[nH]c(=O)c3ccccc23)ccc1F)N1CCN(C(=O)C2CC2)CC1 [Olaparib] (first compound max 10 µM, 7x7, partner max 10 µM) | 0.391 | 0.51 | 0.911 | 0.552 | 0.696 | 0.486 | 0.435 | 0.636 | 0.331 | 0.738 | 0.509 | 0.723 | 0.48 | 0.711 | 0.607 | 0.475 | 0.298 | 0.54 | 0.835 | 0.595
3 | Cc1cc2ncnn2cc1Nc1ncc2c(n1)n(C1CCOCC1)c(=O)n2C [AZD7648] + C=CCn1c(=O)c2cnc(Nc3ccc(N4CCN(C)CC4)cc3)nc2n1-c1cccc(C(C)(C)O)n1 [AZD1775] (first compound max 10 µM, partner max 1 µM) | 0.281 | 0.647 | 0.969 | 0.594 | 0.711 | 0.49 | 0.419 | 0.521 | 0.357 | 0.674 | 0.571 | 0.614 | 0.566 | 0.643 | 0.548 | 0.744 | 0.323 | 0.797 | 0.909 | 0.577
4 | Cc1cc2ncnn2cc1Nc1ncc2c(n1)n(C1CCOCC1)c(=O)n2C [AZD7648] + CCN(CCO)CCCOc1ccc2c(Nc3cc(CC(=O)Nc4cccc(F)c4)[nH]n3)ncnc2c1 [AZD2811] (first compound max 10 µM, 7x7, partner max 1 µM) | 0.186 | 0.358 | 0.54 | 0.461 | 0.373 | 0.43 | 0.287 | 0.439 | 0.381 | 0.285 | 0.829 | 0.229 | 0.427 | 0.605 | 0.242 | 0.209 | 0.263 | 0.908 | 0.465 | 0.265
5 | Cc1cc2ncnn2cc1Nc1ncc2c(n1)n(C1CCOCC1)c(=O)n2C [AZD7648] + CN(C)CCCOc1ccc(-c2ccc3ncc4c(c3c2)n(C2CCOCC2)c(=O)n4C)cn1 [AZD0156] (first compound max 10 µM, 7x7, partner max 1 µM) | 0.164 | 0.229 | 0.54 | 0.359 | 0.28 | 0.483 | 0.261 | 0.401 | 0.431 | 0.263 | 0.256 | 0.176 | 0.314 | 0.384 | 0.286 | 0.27 | 0.222 | 0.323 | 0.313 | 0.16
6 | Cc1cc2ncnn2cc1Nc1ncc2c(n1)n(C1CCOCC1)c(=O)n2C [AZD7648] + C[C@@H]1COCCN1C2=NC(=NC(=C2)C3(CC3)[S@](=N)(=O)C)C4=C5C=CNC5=NC=C4 [AZD6738] (first compound max 10 µM, 7x7, partner max 10 µM) | 0.43 | 0.578 | 0.89 | 0.584 | 0.72 | 0.49 | 0.419 | 0.585 | 0.354 | 0.761 | 0.214 | 0.675 | 0.609 | 0.761 | 0.527 | 0.616 | 0.294 | 0.421 | 0.853 | 0.505
7 | Cc1cc2ncnn2cc1Nc1ncc2c(n1)n(C1CCOCC1)c(=O)n2C [AZD7648] + O=C(c1cc(Cc2n[nH]c(=O)c3ccccc23)ccc1F)N1CCN(C(=O)C2CC2)CC1 [Olaparib] (first compound max 10 µM, 7x7, partner max 10 µM) | 0.183 | 0.218 | 0.522 | 0.238 | 0.177 | 0.299 | 0.224 | 0.441 | 0.0994 | 0.109 | 0.456 | 0.118 | 0.271 | 0.141 | 0.14 | 0.073 | 0.172 | 0.158 | 0.373 | 0.207
8 | NC1(C(=O)N[C@@H](CCO)c2ccc(Cl)cc2)CCN(c2ncnc3[nH]ccc23)CC1 [Capivasertib] + CC(=O)c1c(C)c2cnc(Nc3ccc(N4CCNCC4)cn3)nc2n(C2CCCC2)c1=O [Palbociclib] (first compound max 10 µM, 7x7, partner max 10 µM) | 0.577 | 0.299 | 0.705 | 0.62 | 0.5 | 0.49 | 0.454 | 0.629 | 0.382 | 0.396 | 0.68 | 0.408 | 0.635 | 0.329 | 0.161 | 0.263 | 0.485 | 0.506 | 0.613 | 0.201
9 | NC1(C(=O)N[C@@H](CCO)c2ccc(Cl)cc2)CCN(c2ncnc3[nH]ccc23)CC1 [Capivasertib] + CC(C)n1c(=O)n(C)c2cnc3cc(F)c(-c4ccc(OCCCN5CCCCC5)nc4)cc3c21 [AZD1390] (first compound max 10 µM, 7x7, partner max 0.3 µM) | 0.489 | 0.249 | 0.657 | 0.519 | 0.237 | 0.416 | 0.401 | 0.542 | 0.31 | 0.447 | 0.685 | 0.288 | 0.543 | 0.312 | 0.309 | 0.172 | 0.315 | 0.274 | 0.483 | 0.269
10 | NC1(C(=O)N[C@@H](CCO)c2ccc(Cl)cc2)CCN(c2ncnc3[nH]ccc23)CC1 [Capivasertib] + CCN(CCO)CCCOc1ccc2c(Nc3cc(CC(=O)Nc4cccc(F)c4)[nH]n3)ncnc2c1 [AZD2811] (first compound max 10 µM, 7x7, partner max 1 µM) | 0.497 | 0.345 | 0.748 | 0.607 | 0.36 | 0.42 | 0.445 | 0.586 | 0.388 | 0.371 | 0.915 | 0.383 | 0.635 | 0.562 | 0.257 | 0.174 | 0.36 | 0.86 | 0.678 | 0.477
11 | NC1(C(=O)N[C@@H](CCO)c2ccc(Cl)cc2)CCN(c2ncnc3[nH]ccc23)CC1 [Capivasertib] + COc1nnc2ccc(N3CCC(c4ccc(OCCN5CCN(C)C(=O)[C@H]5C)cc4)CC3)nn12 [AZD5153] (first compound max 10 µM, 7x7, partner max 1 µM) | 0.623 | 0.377 | 0.885 | 0.721 | 0.583 | 0.669 | 0.433 | 0.824 | 0.385 | 0.662 | 1 | 0.354 | 0.735 | 0.631 | 0.346 | 0.242 | 0.554 | 0.981 | 0.722 | 0.421
12 | NC1(C(=O)N[C@@H](CCO)c2ccc(Cl)cc2)CCN(c2ncnc3[nH]ccc23)CC1 [Capivasertib] + C[C@@H]1COCCN1C2=NC(=NC(=C2)C3(CC3)[S@](=N)(=O)C)C4=C5C=CNC5=NC=C4 [AZD6738] (first compound max 10 µM, 7x7, partner max 10 µM) | 0.615 | 0.557 | 0.927 | 0.668 | 0.855 | 0.519 | 0.481 | 0.694 | 0.44 | 0.733 | 0.787 | 0.535 | 0.735 | 0.812 | 0.645 | 0.507 | 0.44 | 0.498 | 0.78 | 0.586
13 | NC1(C(=O)N[C@@H](CCO)c2ccc(Cl)cc2)CCN(c2ncnc3[nH]ccc23)CC1 [Capivasertib] + Cn1cnc2c(F)c(Nc3ccc(Br)cc3Cl)c(C(=O)NOCCO)cc21 [Selumetinib] (first compound max 10 µM, 7x7, partner max 10 µM) | 0.539 | 0.214 | 0.674 | 0.681 | 0.768 | 0.727 | 0.439 | 0.799 | 0.623 | 0.897 | 0.625 | 0.892 | 0.682 | 0.949 | 0.305 | 0.214 | 0.44 | 0.506 | 0.623 | 0.269
